US5393897A, “Isolation and structure of spongistatins 5,7,8 and 9” (Arizona Board of Regents acting on behalf of Arizona State …, priority 1993, dated 1995)
Converted amounts (≈) assume the structure as drawn. Like-named read-outs stand apart in the source and are kept apart here.

What was measured:
[1] = test system: 60 human tumor cell lines; experiment: NCI in vitro primary screen, panel of 60 human tumor cell lines; format: cell-based; settings: for GI50: Homo sapiens
Text: Only two hundred years ago, many diseases ravaged humankind. Many of these diseases now have been controlled or eradicated. In the development of the means to treat or control these diseases, work with the appropriate common experimental animals was of critical importance. With the various types of cancers, and with the HIV virus, such work is presently ongoing. The research for the treatment of various types of cancer is coordinated in the United States by the National Cancer Institute (NCI). NCI, as a government entity, has been charged with assisting anti-cancer research. To establish whether a substance has anti-cancer activity, NCI has established a variety of protocols, one of which involves testing the candidate substance against a cell line panel containing 60 human tumor cell lines. This protocol has been verified and is generally accepted throughout the scientific community. This protocol and the established statistical means of evaluating the results obtained therefrom have been fully described in the literature. See Principles & Practice of Oncology PPO Updates, Volume 3, Number 10, October 1989, by Michael R. Boyd, M.D., Ph.D., for an in depth description of the test protocol. The statistical analysis is explained in "Display and Analysis of Patterns of Differential Activity of Drugs Against Human Tumor Cell Lines: Development of Means Graph and COMPARE Algorithm" Journal of the National Cancer Institute Reports Vol. 81, No. 14, Pg. 1088, Jul. 14, 1989, by K. D. Paull et al. Both of these references are incorporated herein by this reference thereto. The effectiveness and validity of the NCI in vitro protocol continues to be verified.
^a All compounds were tested in quadruplicate at five different con-
entire panel of 60 human tumor cell lines comprising the NCI
^c Correlation coefficients from the Compare pattern-recognition
algorithm were calculated by computer using the TGI-centered
mean graph profiles of differential cellular sensitivities to 1, and
5. The TGI mean graph profile of 1 was used as the benchmark or
"seed" for all of the comparisons.

P388 = settings: IP, Q1D × 9, female mice
[2] = test system: 60 human tumor cell lines; settings: Background on spongistatins from Spongia sp; cited from earlier work
[3] = test system: P388 lymphocytic leukemia cell line; experiment: P388 lymphocytic leukemia cell line bioassay; format: cell-based; settings: Mus musculus; PS (P388); pure compound; read-out: ED50 (the source's name)

SMILES | % ILS (increase in life span over controls) (P388; 40 μg/kg/dose) | potency in NCI panel [2] | IC50 [3] | also measured
C=C(Cl)/C=C/C(O)CC(=C)CC1OC2C(C)C(OC(=O)CC3CC(OC(C)=O)CC4(CC(C)(O)CC(CC(=C)C(C)C(OC(C)=O)C(C)C(=O)CC5CC(OC)CC6(CC(O)CC(/C=C\CCCC7OC(O)(CC(O)C7C)C2O)O6)O5)O4)O3)C1O (stereo not drawn) [spongistatin 1, reference compound] | -10% | one of the most extraordinarily potent substances presently known |  | GI50 ([1]; NCI 60 cell line panel, read-out: panel mean GI50): 0.1 nM; GI50 ([1]; quadruplicate, five concentrations, standard errors averaged less than 15% of means, read-out: Mean Panel GI50): 0.117 nM; Compare Correlation Coefficient ([1]; TGI-centered mean graph profiles, spongistatin 1 as seed): 1.00; correlation of mean-graph fingerprint with microtubule-interactive antimitotics ([1]; pattern-recognition analyses, data not shown): closely correlated; % ILS (increase in life span over controls) (P388; 25 μg/kg/dose): +33%
C=C(Cl)/C=C/[C@H](O)CC(=C)C[C@H]1OC2[C@@H](O)[C@]3(O)C[C@@H](O)[C@H](C)[C@H](CCC/C=C\[C@@H]4C[C@@H](O)C[C@]5(C[C@H](OC)CC(CC(=O)[C@@H](C)[C@H](OC(C)=O)[C@@H](C)C(=C)C[C@@H]6C[C@@](C)(O)C[C@]7(C[C@H](O)CC(CC(=O)O[C@@H]([C@@H]1O)[C@H]2C)O7)O6)O5)O4)O3 [spongistatin 3] |  | exceptionally potent |  | 
C=C(Cl)/C=C/[C@H](O)CC(=C)C[C@H]1OC2[C@@H](O)[C@]3(O)C[C@@H](O)[C@H](C)[C@H](CCC/C=C\[C@@H]4C[C@@H](O)C[C@]5(C[C@H](OC)CC(CC(=O)[C@@H](C)[C@H](O)[C@@H](C)C(=C)C[C@@H]6C[C@@](C)(O)C[C@]7(C[C@H](OC(C)=O)CC(CC(=O)O[C@@H]([C@@H]1O)[C@H]2C)O7)O6)O5)O4)O3 [spongistatin 4] |  |  |  | % ILS (increase in life span over controls) (P388; 5 μg/kg/dose): +55%
C=C/C=C/C(O)CC(=C)CC1OC2C(C)C(OC(=O)CC3CC(OC(C)=O)CC4(CC(C)(O)CC(CC(=C)C(C)C(O)C(C)C(=O)CC5CC(OC)CC6(CC(O)CC(/C=C\CCCC7OC(O)(CC(O)C7C)C2O)O6)O5)O4)O3)C1O (stereo not drawn) [spongistatin 6] | +70% |  |  | 
C=C/C=C/C(O)CC(=C)CC1OC2C(C)C(OC(=O)CC3CC(OC(C)=O)CC4(CC(C)(O)CC(C=C5COC(C(C)C(=O)CC6CC(OC)CC7(CC(O)CC(/C=C\CCCC8OC(O)(CC(O)C8C)C2O)O7)O6)C5C)O4)O3)C1O (stereo not drawn) [spongistatin 8] |  |  | 0.8 ng/mL (≈ 0.698 nM) | 
C=C(Cl)/C=C/C(O)CC(=C)CC1OC2C(C)C(OC(=O)CC3CC(OC(C)=O)CC4(CC(C)(O)CC(C=C5COC(C(C)C(=O)CC6CC(OC)CC7(CC(O)CC(/C=C\CCCC8OC(O)(CC(O)C8C)C2O)O7)O6)C5C)O4)O3)C1O (stereo not drawn) [spongistatin 9] |  |  | < 0.1 ng/mL | 
